{
  "source": "patent US7285552B2",
  "about": "“Drugs containing triazaspiro[5.5]undecane derivatives as the active ingredient” (Ono Pharmaceuticals Co., Ltd., priority 2001, dated 2007)",
  "assay_type_in_all_cases": "cell-based",
  "key": {"HIV-189.6": {"tested_on": "HIV-189.6", "test": "Inhibiting activity to HIV-1 infection to human PBMC (p24 antigen, EIA), HIV-1 89.6", "procedure": "(§1) Human PBMC (peripheral blood mononuclear cell) was isolated from HIV-negative healthy persons by a Ficol-Hipaque density-gradient centrifugation and incubated for 3 days in the presence of 10 μg/ml PHA (phytohemagglutinin). PHA-stimulated PBMC was suspended in RPMI 1640 containing 10% serum to give a density of 1×10^5 cells/ml and poured into a 96-well microplate. Furthermore, in the presence of a sole test compound in various concentrations or in the co-presence with other anti-HIV inhibitor (such as AZT (zidovudin) or AMD 3100), various HIV-1 cell lines of 50 TCID50 (such as HIV-1LAI, HIV-1NL4-3, HIV-1BaL, HIV-1JRFL, HIV-189.6, HIV-1 HIV-1ERS104pre, HIV-1JSL, HIV-1MM, HIV-1TM and HIV-1MOKW) were exposed. After being incubated for 7 days, the amount of HIV-1p24 antigen on the supernatant liquid of the incubation was measured by an EIA method using Lumipulse F (Fuji Rebio).\n(§2) Inhibiting effect to HIV-1 infection to human PBMC was investigated by the joint use of the compound of Example 2(1) with AMD 3100. The compound of Example 2(1) in various concentrations and AMD 3100 were added either solely or combinably and an assay was carried out. Inhibiting effects of both compounds when the p24 amount where the compounds are not added is defined as 100% are shown in terms of % control."}, "[1]": {"tested_on": "Mixed Virus of HIV-1BaL and HIV-1NL4-3 (1:1)", "test": "Inhibiting activity to HIV-1 infection to human PBMC (p24 antigen, EIA), mixed virus", "conditions": "HIV-1BaL + HIV-1NL4-3 (1:1)", "procedure": "as §1, §2"}, "HIV-1MOKW": {"tested_on": "HIV-1MOKW", "test": "Inhibiting activity to HIV-1 infection to human PBMC (p24 antigen, EIA), wild-type HIV-1", "conditions": "Human immunodeficiency virus 1, read-out: IC50, inhibiting effect to infection to human PBMC", "procedure": "as §1\n(§3) Inhibiting effect of the compound of Example 2(1) to human PBMC infected by wild-type HIV-1 (HIV-1MOKW) and by multidrug resistant HIV-1 (HIV-1JSL and HIV-1MM) to reverse transcriptase inhibitor and protease inhibitor was investigated."}, "HIV-1JSL": {"tested_on": "HIV-1JSL", "test": "Inhibiting activity to HIV-1 infection to human PBMC (p24 antigen, EIA), multidrug resistant HIV-1", "conditions": "Human immunodeficiency virus 1, PBMC, read-out: IC50, inhibiting effect to infection to human PBMC", "procedure": "as §1, §3"}, "HIV-1MM": {"tested_on": "HIV-1MM", "test": "Inhibiting activity to HIV-1 infection to human PBMC (p24 antigen, EIA), multidrug resistant HIV-1", "conditions": "Human immunodeficiency virus 1, PBMC, read-out: IC50, inhibiting effect to infection to human PBMC", "procedure": "as §1, §3"}, "HIV-1BaL": {"tested_on": "HIV-1BaL", "test": "Inhibiting activity to HIV-1 infection to human PBMC (p24 antigen, EIA), HIV-1BaL", "procedure": "as §1\n(§4) Inhibiting effect to human PBMC infected by HIV-1 HIV-1BaL by the joint use of the compound of Example 2(1) and saquinavir (SQV) which is an anti-HIV inhibitor was investigated. Inhibiting effects of both compounds when the p24 amount where the compounds are not added is defined as 100% are shown in terms of % control.\nas §4, with “75(54)” for “2(1)”, “inhibitor […]” for “inhibitor”"}, "[2]": {"conditions": "Example 2(1) 0.1 μM + AMD 3100 0.01 μM"}, "[3]": {"conditions": "Example 2(1) 0.1 μM + AMD 3100 0.1 μM"}, "[4]": {"conditions": "Example 2(1) 1 μM + AMD 3100 0.01 μM"}, "[5]": {"conditions": "Example 2(1) 1 μM + AMD 3100 0.1 μM"}},
  "data": [
    {"smiles": "c1cc(CN2CCCNCCNCCCNCC2)ccc1CN1CCCNCCNCCCNCC1", "note": "[AMD 3100, reference compound]", "values": [
      {"measurement": "p24 amount, % control (no compound = 100%)", "setting": "HIV-189.6; AMD 3100 0.01 μM alone", "result": 58.3, "unit": "% control"},
      {"measurement": "p24 amount, % control (no compound = 100%)", "setting": "HIV-189.6; AMD 3100 0.1 μM alone", "result": 6.9, "unit": "% control"},
      {"measurement": "p24 amount, % control (no compound = 100%)", "setting": "[1]; AMD 3100 0.01 μM alone", "result": 59.1, "unit": "% control"},
      {"measurement": "p24 amount, % control (no compound = 100%)", "setting": "[1]; AMD 3100 0.1 μM alone", "result": 44.2, "unit": "% control"}
    ]},
    {"smiles": "CCCCN1C(=O)C(CC2CCCCC2)NC(=O)C12CCN(Cc1ccc3c(c1)OCCO3)CC2.Cl", "note": "(stereo not shown) [Example 2(1), 9-(1,4-benzodioxan-6-ylmethyl)-1-butyl-3-cyclohexylmethyl-2,5-dioxo-1,4,9-triazaspiro[5.5]undecane.hydrochloride]", "values": [
      {"measurement": "p24 amount, % control (no compound = 100%)", "setting": "HIV-189.6; [2]", "result": 38.0, "unit": "% control"},
      {"measurement": "p24 amount, % control (no compound = 100%)", "setting": "HIV-189.6; [3]", "result": 6.0, "unit": "% control"},
      {"measurement": "p24 amount, % control (no compound = 100%)", "setting": "HIV-189.6; Example 2(1) 0.1 μM alone", "result": 72.0, "unit": "% control"},
      {"measurement": "p24 amount, % control (no compound = 100%)", "setting": "HIV-189.6; [4]", "result": 15.1, "unit": "% control"},
      {"measurement": "p24 amount, % control (no compound = 100%)", "setting": "HIV-189.6; [5]", "result": 0.7, "unit": "% control"},
      {"measurement": "p24 amount, % control (no compound = 100%)", "setting": "HIV-189.6; Example 2(1) 1 μM alone", "result": 64.5, "unit": "% control"},
      {"measurement": "p24 amount, % control (no compound = 100%)", "setting": "[1]; [2]", "result": 32.1, "unit": "% control"},
      {"measurement": "p24 amount, % control (no compound = 100%)", "setting": "[1]; [3]", "result": 17.8, "unit": "% control"},
      {"measurement": "p24 amount, % control (no compound = 100%)", "setting": "[1]; Example 2(1) 0.1 μM alone", "result": 63.8, "unit": "% control"},
      {"measurement": "p24 amount, % control (no compound = 100%)", "setting": "[1]; [4]", "result": 10.5, "unit": "% control"},
      {"measurement": "p24 amount, % control (no compound = 100%)", "setting": "[1]; [5]", "result": 1.5, "unit": "% control"},
      {"measurement": "p24 amount, % control (no compound = 100%)", "setting": "[1]; Example 2(1) 1 μM alone", "result": 52.4, "unit": "% control"},
      {"measurement": "IC50", "setting": "HIV-1MOKW", "result": "40 ± 29", "unit": "nM"},
      {"measurement": "IC50", "setting": "HIV-1JSL", "result": "64 ± 11", "unit": "nM"},
      {"measurement": "IC50", "setting": "HIV-1MM", "result": "48 ± 62", "unit": "nM"},
      {"measurement": "p24 amount, % control (no compound = 100%)", "setting": "HIV-1BaL; Example 2(1) 0.1 μM + Saquinavir 0.01 μM", "result": 44.3, "unit": "% control"},
      {"measurement": "p24 amount, % control (no compound = 100%)", "setting": "HIV-1BaL; Example 2(1) 0.1 μM alone", "result": 75.4, "unit": "% control"}
    ]},
    {"smiles": "CCCCN1C(=O)[C@@H]([C@H](O)C2CCCCC2)NC(=O)C12CCN(Cc1ccc(Oc3ccc(C(=O)O)cc3)cc1)CC2.Cl", "note": "[Example 75(54), (3R)-1-butyl-2,5-dioxo-3-((1R)-1-hydroxy-1-cyclohexylmethyl)-9-(4-(4-carboxyphenyloxy)phenylmethyl)-1,4,9-triazaspiro[5.5]undecane.hydrochloride]", "values": [
      {"measurement": "p24 amount, % control (no compound = 100%)", "setting": "HIV-1BaL; Example 75(54) 0.2 nM + Saquinavir 1 nM", "result": 66.0, "unit": "% control"},
      {"measurement": "p24 amount, % control (no compound = 100%)", "setting": "HIV-1BaL; Example 75(54) 0.2 nM + Saquinavir 5 nM", "result": 52.0, "unit": "% control"},
      {"measurement": "p24 amount, % control (no compound = 100%)", "setting": "HIV-1BaL; Example 75(54) 0.2 nM + Saquinavir 25 nM", "result": 5.7, "unit": "% control"},
      {"measurement": "p24 amount, % control (no compound = 100%)", "setting": "HIV-1BaL; Example 75(54) 0.2 nM alone", "result": 64.2, "unit": "% control"},
      {"measurement": "p24 amount, % control (no compound = 100%)", "setting": "HIV-1BaL; Example 75(54) 1 nM + Saquinavir 1 nM", "result": 32.8, "unit": "% control"},
      {"measurement": "p24 amount, % control (no compound = 100%)", "setting": "HIV-1BaL; Example 75(54) 1 nM + Saquinavir 5 nM", "result": 29.3, "unit": "% control"},
      {"measurement": "p24 amount, % control (no compound = 100%)", "setting": "HIV-1BaL; Example 75(54) 1 nM + Saquinavir 25 nM", "result": 3.8, "unit": "% control"},
      {"measurement": "p24 amount, % control (no compound = 100%)", "setting": "HIV-1BaL; Example 75(54) 1 nM alone", "result": 34.2, "unit": "% control"},
      {"measurement": "p24 amount, % control (no compound = 100%)", "setting": "HIV-1BaL; Example 75(54) 5 nM + Saquinavir 1 nM", "result": 10.8, "unit": "% control"},
      {"measurement": "p24 amount, % control (no compound = 100%)", "setting": "HIV-1BaL; Example 75(54) 5 nM + Saquinavir 5 nM", "result": 6.1, "unit": "% control"},
      {"measurement": "p24 amount, % control (no compound = 100%)", "setting": "HIV-1BaL; Example 75(54) 5 nM + Saquinavir 25 nM", "result": 1.6, "unit": "% control"},
      {"measurement": "p24 amount, % control (no compound = 100%)", "setting": "HIV-1BaL; Example 75(54) 5 nM alone", "result": 10.6, "unit": "% control"}
    ]},
    {"smiles": "CC(C)(C)NC(=O)[C@@H]1C[C@@H]2CCCC[C@@H]2CN1C[C@@H](O)[C@H](Cc1ccccc1)NC(=O)[C@H](CC(N)=O)NC(=O)c1ccc2ccccc2n1", "note": "[Saquinavir, saquinavir, reference compound]", "values": [
      {"measurement": "p24 amount, % control (no compound = 100%)", "setting": "HIV-1BaL; Saquinavir 1 nM alone", "result": 78.1, "unit": "% control"},
      {"measurement": "p24 amount, % control (no compound = 100%)", "setting": "HIV-1BaL; Saquinavir 5 nM alone", "result": 67.7, "unit": "% control"},
      {"measurement": "p24 amount, % control (no compound = 100%)", "setting": "HIV-1BaL; Saquinavir 0.01 μM alone", "result": 53.8, "unit": "% control"},
      {"measurement": "p24 amount, % control (no compound = 100%)", "setting": "HIV-1BaL; Saquinavir 25 nM alone", "result": 5.9, "unit": "% control"}
    ]}
  ]
}
